Molecules are shown by their SMILES.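 Cultured in 96-well plates, cells were exposed to test compound for 48 hours across five concentrations. TGI is the concentration that stops growth completely.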

Test in all cases: inhibition of tumour cell growth, NCI panel, 48 h
For assay [1], the system named is K-562 leukemia.
For assay [2], the system named is OVCAR-5 ovarian.
The test system of assay [3] is SF-295 CNS.
Assay [4] relates to HCT-116 colon.
The test system of assay [5] is UACC-257 melanoma.
Assay [6] relates to RXF 393 renal.
In assay [7] the test system is MDA-MB-435.
Assay [8] has as its system SK-MEL-2 melanoma.
In assay [9] the test system is BT-549 breast.
The subject of assay [10] is PC-3 prostate.

For `Nn1c(Sc2nc3ccccc3c(=O)n2N)nc2ccccc2c1=O`, the TGI was > 100 µM in assay [1]; 40.6 µM in assay [2]; 42.1 µM in [3]; 12.6 µM in assay [4]; 38.1 µM in [5]; 25.1 µM in assay [6]. Besides, the TGI in assay [7] was > 49.5 µM; in assay [8], 14.3 µM; in assay [9], 6.38 µM; in assay [10], 28.4 µM.

`Cc1cn(CCOCCOC(=O)NC(CCCNC(N)=O)C(=O)O)c(=O)[nH]c1=O` (stereo not given): the TGI in assay [1], in assay [2], in [3], in assay [4], in assay [5] and in assay [6] was > 100 µM throughout. Also, the TGI in [7], in assay [8], in [9] and in assay [10] was > 100 µM throughout.

As for `COC(=O)C1CC23C=CCN4CC(C2C)C2(c5ccccc5NC12)C43` (stereo not given), the TGI in assay [1], in [2], in [3], in [4], in assay [5] and in assay [6] was > 100 µM throughout. For the same compound, the TGI in assay [7], in assay [8], in assay [9] and in assay [10] was > 100 µM each time.

In the case of `Clc1nc2c(C#Cc3ccccc3)ncnc2n1C1CCCCO1` (stereo not given), the TGI in [1] is > 100 µM; in assay [2], 25.9 µM; in assay [3], 54.4 µM; in [4] it was 21.7 µM; in assay [5] it was 41.1 µM; in assay [6], 26.9 µM. The TGI in assay [7] was 94.1 µM; in [8] it was 31.5 µM; in assay [9], 49.7 µM; in assay [10], 43.2 µM.

As for `Cc1c(C#N)c(=N)oc2ccccc12`, the TGI in assay [1], in assay [2], in [3], in assay [4], in assay [5] and in assay [6] was > 100 µM throughout. Further, the TGI in assay [7], in [8], in assay [9] and in [10] was > 100 µM in each case.

With `Nc1ccc2c(c1)NC(=O)[C@@H]1CCCN1C2=O`, the TGI in [1], in assay [2], in assay [3], in assay [4], in assay [5] and in [6] was > 100 µM each time. Moreover, the TGI in assay [7], in assay [8], in assay [9] and in assay [10] was > 100 µM throughout.

As for `CC(C)(C)C(=O)N1CCN(C=O)C1=S`, the TGI in assay [1] is > 100 µM; in assay [2], > 100 µM; in assay [3], > 100 µM; in [4] it was > 100 µM; in assay [5], > 100 µM; in assay [6], 81.9 µM. Besides, the TGI in assay [7], in [8], in [9] and in assay [10] was > 100 µM each time.

As to `COC(=O)[C@](C)(Cc1ccccc1)NC(=O)[C@@H](C)N1[C@@H](c2ccccc2)COC1(C)C`, the TGI in [1], in [2], in [3], in assay [4], in assay [5] and in [6] was > 100 µM in each case. Besides, the TGI in assay [7], in assay [8], in [9] and in assay [10] was > 100 µM in each case.

With `COC(=O)/C=C1\C(=O)C=C2[C@@H]3C[C@H]4C[C@H](CC[C@@]4(C)N21)C3(C)NC(C)=O` (stereo not given in full), the TGI in assay [1] was > 100 µM; in assay [2] it was 35.7 µM; in assay [3], 44.1 µM; in [4], 24 µM; in assay [5], 52.5 µM; in assay [6], > 39.9 µM. Also, the TGI is 28.5 µM in [7], 38.9 µM in assay [8], 24.8 µM in [9] and 31.4 µM in assay [10].

On to `CCN(CC)C1Oc2cc3c(cc2C(c2cc(OC)c(OC)c(OC)c2)C1C)OCO3` (stereo not given), for which the TGI in assay [1] is 11.1 µM; in [2] it was > 47.8 µM; in assay [3] it was 10 µM; in assay [4], 13.4 µM; in assay [5], > 100 µM; in [6] it was > 44.1 µM. The TGI was 0.535 µM in [7], 11.7 µM in assay [8], > 58.4 µM in assay [9] and > 57.4 µM in assay [10].

Regarding `CN(C)CCNC(=O)c1cc(NC(=O)c2cc(NC(=O)CC/C=C3/[C@@H]4CC[C@H]3N=N4)cn2C)cn1C`, the TGI in assay [1], in [2], in assay [3], in assay [4], in assay [5] and in [6] was > 100 µM throughout. Besides, the TGI in assay [7], in assay [8], in assay [9] and in assay [10] was > 100 µM each time.

On to `CC1=CC[C@](C)(O)[C@@]2(C)CC[C@H]3C(=C(C)C)C(=O)C[C@]3(C)C[C@H]12`, for which the TGI in assay [1] was 17 µM; in assay [2] it was > 50 µM; in assay [3], > 50 µM; in assay [4] it was > 50 µM; in [5], > 50 µM; in assay [6], > 50 µM. The TGI in assay [7], in assay [8], in assay [9] and in [10] was > 50 µM throughout.

With `O=C1c2ccccc2C(=O)c2nn(N=P(CP(=Nn3nc4c(n3)C(=O)c3ccccc3C4=O)(c3ccccc3)c3ccccc3)(c3ccccc3)c3ccccc3)nc21`, the TGI in assay [1], in [2], in [3], in [4], in assay [5] and in [6] was > 100 µM in each case. The TGI in [7], in [8], in assay [9] and in assay [10] was > 100 µM throughout.

(Values after PubChem BioAssay (NCI).)
